According to the supplement of paper PMC10307832:

Columns and labels:
Experiment in all cases: relative viability (nuclei count vs DMSO), 5 days (fraction); higher = more cells survive
Masitinib + Pemetrexed = compound: Cc1ccc(NC(=O)c2ccc(CN3CCN(C)CC3)cc2)cc1Nc1nc(-c2cccnc2)cs1 [Masitinib] + Nc1nc2[nH]cc(CCc3ccc(C(=O)N[C@@H](CCC(=O)O)C(=O)O)cc3)c2c(=O)[nH]1 [Pemetrexed] (partner 0.2 µM)
In short: (§1)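 Lung cancer cell lines were pin-tool dosed in 1536-well plates on the day after seeding, with either a lone drug or a fixed anchor-drug dose plus five library-drug doses (not always all listed) in √10 steps. Nuclei were counted on 4× images after 5 days. Relative viability is the ratio of treated-well to vehicle-well nuclei counts, with each value a median of duplicate plates.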

Masitinib + OSI-027 = compound: Cc1ccc(NC(=O)c2ccc(CN3CCN(C)CC3)cc2)cc1Nc1nc(-c2cccnc2)cs1 [Masitinib] + COc1cccc2cc(-c3nc([C@H]4CC[C@H](C(=O)O)CC4)n4ncnc(N)c34)[nH]c12 [OSI-027] (partner 0.5 µM)
In short: as §1

[1] = compound: CC1=CC(=CC=C1)NC2=NC(=CS2)C3=CC=NC=C3 + COc1cc2c(Oc3ccc(NC(=O)C4(C(=O)Nc5ccc(F)cc5)CC4)cc3F)ccnc2cc1OCCCN1CCOCC1 [Foretinib] (partner 0.25 µM)
In short: as §1

Masitinib + Lapatinib = compound: Cc1ccc(NC(=O)c2ccc(CN3CCN(C)CC3)cc2)cc1Nc1nc(-c2cccnc2)cs1 [Masitinib] + CS(=O)(=O)CCNCc1ccc(-c2ccc3ncnc(Nc4ccc(OCc5cccc(F)c5)c(Cl)c4)c3c2)o1 [Lapatinib] (partner 2 µM)
In short: as §1

Row | Cell Line | relative viability (Masitinib + Pemetrexed; first compound 0.01 µM) | relative viability (Masitinib + Pemetrexed; first compound 0.03162 µM) | relative viability (Masitinib + Pemetrexed; first compound 0.1 µM) | relative viability (Masitinib + Pemetrexed; first compound 0.3162 µM) | relative viability (Masitinib + Pemetrexed; first compound 1 µM) | relative viability (Masitinib + OSI-027; first compound 0.01 µM) | relative viability (Masitinib + OSI-027; first compound 0.03162 µM) | relative viability (Masitinib + OSI-027; first compound 0.1 µM) | relative viability (Masitinib + OSI-027; first compound 1 µM) | relative viability ([1]; first compound 0.08 µM) | relative viability ([1]; first compound 0.8 µM) | relative viability ([1]; first compound 2.53 µM) | relative viability ([1]; first compound 8 µM) | relative viability (Masitinib + Lapatinib; first compound 0.01 µM) | relative viability (Masitinib + Lapatinib; first compound 0.03162 µM) | relative viability (Masitinib + Lapatinib; first compound 0.1 µM) | relative viability (Masitinib + Lapatinib; first compound 0.3162 µM) | relative viability (Masitinib + Lapatinib; first compound 1 µM) | relative viability ([1]; first compound 0.253 µM) | relative viability (Masitinib + OSI-027; first compound 0.3162 µM)
1 | 201T | 0.309 | 0.343 | 0.319 | 0.347 | 0.345 | 0.792 | 0.534 | 0.745 | 0.729 | 0.835 | 0.939 | 0.759 | 0.871 | 0.763 | 1.01 | 0.811 | 0.882 | 1.03 |  | 
2 | A549 |  |  |  |  |  |  |  |  |  | 0.882 | 0.871 | 0.866 | 0.802 | 0.995 | 0.948 | 1.05 | 0.942 | 0.963 | 0.914 | 
3 | A-427 | 0.758 | 0.986 | 0.857 | 1.03 | 0.771 |  | 0.509 |  | 0.456 | 1.02 | 1.14 | 0.924 | 0.707 |  | 1.02 |  | 1.17 | 1.03 | 1.08 | 0.531
4 | ABC-1 |  |  |  |  |  | 0.432 | 0.52 | 0.516 | 0.38 | 1.08 | 1.18 | 0.884 | 1.03 | 1.54 | 1.15 | 1.21 | 1.37 | 1.16 | 1.14 | 0.334
5 | BEN | 0.886 | 0.713 | 0.897 | 0.704 | 0.777 | 0.306 |  | 0.325 | 0.436 | 0.615 | 0.624 | 0.392 | 0.629 | 0.774 | 0.675 | 0.928 | 0.54 | 0.65 | 0.435 | 0.26
6 | CAL-12T | 1.11 | 1.15 | 1.29 | 1.4 | 1.28 | 0.682 | 0.554 | 0.705 | 0.536 | 1.2 | 1.04 | 1.09 | 0.899 | 0.612 | 0.729 | 0.745 | 0.592 | 0.499 | 1.08 | 0.404
7 | Calu-6 |  |  |  |  |  |  |  |  |  | 0.712 | 0.727 | 0.768 | 0.768 | 1.05 | 1.01 | 1.25 | 0.938 | 1.05 | 0.795 | 
8 | ChaGo-K-1 | 0.251 | 0.274 | 0.258 | 0.248 | 0.251 | 0.779 | 0.537 | 0.603 | 0.538 | 0.977 | 0.931 | 0.902 | 0.85 |  |  |  |  |  | 0.938 | 0.695
9 | EBC-1 |  |  |  |  |  |  |  |  |  | 0.0887 | 0.0911 | 0.117 | 0.114 | 0.191 | 0.235 | 0.197 | 0.196 | 0.21 | 0.103 | 
10 | HCC-44 | 0.494 | 0.657 | 0.49 | 0.617 | 0.578 | 0.526 | 0.497 | 0.531 | 0.59 |  |  |  |  | 0.911 | 0.98 | 1.05 | 0.856 | 0.951 |  | 0.392
11 | IA-LM |  |  |  |  |  |  |  |  |  | 1.04 | 1.03 | 0.941 | 0.838 |  |  | 0.891 | 0.928 | 1.07 | 1.16 | 
12 | LCLC-103H |  | 0.465 | 0.416 | 0.469 | 0.424 | 0.412 | 0.526 | 0.414 | 0.404 | 0.663 | 0.725 | 0.76 | 0.608 |  |  |  |  |  | 0.695 | 0.459
13 | NCI-H441 | 0.261 | 0.273 | 0.244 | 0.261 | 0.256 | 0.654 | 0.628 | 0.798 | 0.429 | 0.754 | 1.12 | 0.857 | 0.842 |  |  |  |  |  | 0.791 | 0.717
14 | NCI-H522 | 1.13 | 0.935 | 0.95 | 0.841 | 0.997 | 0.784 |  | 0.781 | 0.698 |  |  |  |  |  |  |  |  |  |  | 0.781
15 | NCI-H727 |  |  |  |  |  | 0.523 | 0.601 | 0.637 | 0.442 |  | 0.785 | 0.79 | 0.71 | 0.923 | 0.95 | 0.857 | 0.914 | 0.68 | 0.837 | 0.576
16 | NCI-H1299 |  |  |  |  |  |  |  |  |  | 1 | 0.993 | 1.01 | 0.897 | 0.922 | 0.961 | 0.991 | 0.976 | 0.945 | 1.06 | 
17 | NCI-H1623 |  |  |  |  |  | 0.373 | 0.507 | 0.447 | 0.367 | 0.836 | 0.776 | 0.699 | 0.824 |  |  |  |  |  | 0.729 | 0.318
18 | NCI-H1648 | 0.635 | 0.891 | 0.75 |  | 0.7 | 0.272 |  | 0.236 | 0.254 |  |  |  |  |  |  |  |  |  |  | 0.268
19 | NCI-H1703 |  |  |  |  |  |  |  |  |  | 0.293 | 0.367 | 0.374 | 0.375 | 0.764 | 0.857 | 0.436 | 0.479 | 0.256 | 0.347 | 
20 | NCI-H1792 | 0.846 | 0.525 | 0.93 | 0.548 | 0.707 | 0.762 | 0.402 | 0.71 | 0.9 |  |  |  |  | 0.721 | 0.405 | 0.874 | 0.846 | 0.995 |  | 0.563
21 | NCI-H2342 | 0.741 | 0.72 | 0.831 | 0.746 | 0.781 | 0.637 | 0.58 | 0.696 | 0.593 | 0.889 | 0.949 | 1.08 | 1.14 |  |  |  |  |  | 1.03 | 0.592
22 | SW 900 | 0.462 | 0.47 | 0.451 | 0.478 | 0.452 | 0.654 | 0.443 | 0.627 | 0.482 | 1.05 | 0.797 | 0.756 | 0.851 |  |  |  |  |  | 0.89 | 0.527
